In patent publication US20150352100A1, “USE OF SELECTIVE DELTA-OPIOID RECEPTOR ANTAGONISTS AND SPECIFIC SENSORY RECEPTOR LIGANDS” (priority 2013, published 2015):
“Also recorded” adds a separate entry of the source.

Experiments:
[1] = tested on: 6 mm punch wounds on the back of mice; assay: In vivo wound healing, 6 mm punch wounds, topical cream; conditions: 1% w/w cream on wounds twice every day; for wound healing (mean healing rate, macroscopic and microscopic): 10 mice per group, vs placebo
Method: The effects of selective DOR antagonist are tested in animal models of wound healing, preferably in mice, to determine whether a selective DOR antagonist improves the quality, rate or extent of wound healing.
In the present example, male mice of 3-4 months old were grouped into 5 groups and 10 in each group. Before experiment, mice are shaved one day before. Pentothal was used for anesthesia before experiments. Seven days experiments are used. Four wounds are made by cutting 6 mm diameter and 3 cm apart. Day 1 wound #1 for 7 day wound, Day 3 wound #2 for 5 day wound, Day 5 wound #3 for 3 day wound, Day 7 wound #4 for 1 day wound, Day 8 mice are sacrifice. […] At the end of experiments on Day 8, the biopsies will be taken from the mice and fixed in 4% formaldehyde and embedded in paraffin block.

TAS2R14 [2] = target: T1, TAS2R14 (Homo sapiens, UniProt Q9NYV8); assay: Calcium imaging (Fluo4-AM) of keratinocytes with TAS2R14 ligands; assay type: cell-based; conditions: for intracellular free calcium (fluorescence of fluo4): bath-application of 1 mM, primary keratinocytes and N/TERT cells
T1 construct: This has allowed functional studies of TAS2R14 to be carried out in a native setting; endogenous in cells; host or cells: human primary keratinocytes and N/TERT immortalised human keratinocytes
T1 sequence (Q9NYV8 1-317): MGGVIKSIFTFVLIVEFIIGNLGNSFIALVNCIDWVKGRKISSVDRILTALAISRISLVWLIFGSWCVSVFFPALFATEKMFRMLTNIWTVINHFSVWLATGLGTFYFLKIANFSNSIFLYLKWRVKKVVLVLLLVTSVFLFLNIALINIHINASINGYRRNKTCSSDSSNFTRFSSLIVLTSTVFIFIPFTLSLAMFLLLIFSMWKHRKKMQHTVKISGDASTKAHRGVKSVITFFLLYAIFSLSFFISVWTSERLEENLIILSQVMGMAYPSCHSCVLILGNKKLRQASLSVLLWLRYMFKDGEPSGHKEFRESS
Method: (§1) Maximal increases in fluorescence were generated in each recording by addition of the ionophore ionomycin at 1 μM, and calcium responses were calculated as percentages compared to maximal ionomycin signal.

TAS2R14 [3] = assay: as above; assay type: cell-based, human; conditions: for calcium response: in the presence of 100 μM suramin, 1 mM thujone, FFA in N/TERT cells, n=4; for effect of blocker on calcium response to thujone: keratinocytes; for effect of blocker on calcium responses to thujone and FFA: human skin cells, suramin 100 μM
Method: as §1

[4] = tested on: primary human cultured fibroblasts; assay: In-vitro wound scratch model, wound closure/migration; assay type: cell-based; conditions: for scratch wound closure after 24 h, remaining gap: FIG. 16b, all opioid antagonists 100 nM, compared to control without any antagonist; for wound closure/migration, gap closure after 24 h: FIG. 16a, compared to control cells in DMSO diluent
Method: All opioid antagonists were used in a concentration of 100 nM.
The stimulation of wound closure in fibroblasts by TGF-beta1 is not surprising. However, the stimulation by the DOR-Antagonist Naltrindole was not expected. In an additional experiment we tested the effect of various specific opioid receptor antagonists on the wound closure/migration of human primary fibroblasts using the in-vitro wound scratch assay.

DOR-mRNA expression = assay: Semiquantification of DOR mRNA by real time PCR in cultured human primary skin cells; assay type: cell-based
Excerpt: A: Semiquantification of DOR mRNA by Real Time PCR
It is important to mention, that human cultured melanocytes and keratinocytes express more MOR than DOR mRNA. However, fibroblasts express more DOR than MOR mRNA.

DOR protein expression = assay: Western blot analysis of DOR protein expression in cultured human skin cells; assay type: cell-based
Excerpt: B: Protein Expression of DOR by Western Blot Analysis: […]

[5] = tested on: Erk phosphorylation (ERK1/2); assay: pERK activation protocol (western blot, anti-phospho ERK1/2) in primary keratinocytes; assay type: cell-based, human
Method: Primary keratinocytes were grown to 70% and replaced with supplement free medium 16-24 hours before the experiments. The strongly stimulating supplement (25 mg/l bovine pituitary extract and 2.5 ug/l epidermal growth factor, EGF) in complete KFSM (Gibco) medium was used as positive control. Cells were exposed to SNC 80 for 15 min, DMSO (blank control) 15 min, or FCS/complete K-SFM for 30 min at 37° C. […] Cells were lysed in 100 μl RIPA buffer and cell lysates frozen in liquid nitrogen.
Equal amount of protein were separated by electrophoresis over 10% polyacrylamid gels followed by protein transfer onto nitrocellulose membrane. Blots were transferred to primary antibody solution (anti-phospho ERK1/2 in 5% BSA/TBS-T) and incubated at 4° C. over night. After appropriate washing in TBS-T blots were incubated in secondary antibody (anti-rabbit Alexa-680 in 5% milk/TBS-T) for 45 min at room temperature in dark. Blots were washed 3× in TBS-T protected from light. Blots were imaged with the IR imager in 700 nm channel in a scan at 169 μm resolution.

[6] = cultured human primary keratinocytes
[7] = human cultured fibroblasts, 24 h exposure
[8] = human cultured melanocytes, 6 h exposure
[9] = primary human cultured keratinocytes

## Dalargin
[1]
  wound healing (mean healing rate, macroscopic and microscopic): very significant advantage of a specific DOR antagonist over

## O=C(O)c1ccccc1Nc1cccc(C(F)(F)F)c1 [FFA, flufenamic acid]
TAS2R14 [2]
  intracellular free calcium (fluorescence of fluo4): robust increases in intracellular free calcium
TAS2R14 [3]
  calcium response: 31.0±7.0 percentage of ionomycin signal

## Oc1ccc2c3c1O[C@H]1c4oc5ccccc5c4C[C@@]4(O)[C@@H](C2)N(CC2CC2)CC[C@]314 [Naltriben]
[4]
  scratch wound closure after 24 h, remaining gap: more effective than the mixed DOR1/2 antagonist Naltrindole and much more effective than the DOR1 antagonist BNTX

## C=CCN1C[C@H](C)N([C@H](c2ccc(C(=O)N(CC)CC)cc2)c2cccc(OC)c2)C[C@H]1C [SNC-80]
DOR-mRNA expression; [6]
  DOR-mRNA expression: increases significantly
[1]
  wound healing (mean healing rate, macroscopic and microscopic): very significant advantage of a specific DOR antagonist over
DOR protein expression; [7]
  DOR protein expression: some up- and downregulation
DOR protein expression; [8]
  DOR protein expression: not
DOR protein expression; [9]
  DOR protein expression: important up-regulation; also recorded: up-regulates
[4]
  wound closure/migration, gap closure after 24 h: does not seem to have any stimulation of migration; also recorded: does not seem to change migration
[5]; primary human keratinocytes
  effect on Naltrindole-stimulated Erk phosphorylation: antagonized

## TGFβ1: known stimulator of wound closure/migration
[4]
  wound closure/migration, gap closure after 24 h: significant improvement of wound closure/migration
[4]; listed as TGF-beta1
  wound closure/migration, gap closure after 24 h: significant faster migration and wound closure

## Oc1ccc2c3c1O[C@H]1c4[nH]c5ccccc5c4C[C@@]4(O)[C@@H](C2)N(CC2CC2)CC[C@]314 [Naltrindole, naltrindole]
DOR-mRNA expression; cultured human primary fibroblasts
  DOR-mRNA expression: increases significantly
DOR-mRNA expression; [6]
  DOR-mRNA expression: increases significantly
DOR-mRNA expression; cultured human primary melanocytes
  DOR-mRNA expression: increases significantly
DOR-mRNA expression; cultured human primary melanocytes, co-incubation of Naltrindole and agonist SNC-80
  DOR-mRNA expression: increases significantly
DOR-mRNA expression; human keratinocytes and melanocytes pre-incubated for 3 hours with 10 μM Naltrindole, then exposed to SNC-80
  mRNA of DOR: massively up-regulated
[1]
  wound healing (mean healing rate, macroscopic and microscopic): significantly improved wound healing at days 5 and 7
[1]; listed as Naltrindol
  wound healing (mean healing rate, macroscopic and microscopic): significant better healing
[1]; compared to placebo
  improvement of wound healing: 3 days
DOR protein expression; [7]
  DOR protein expression: important upregulation
DOR protein expression; [8]
  DOR protein expression: important up-regulation; also recorded: upregulates
DOR protein expression; human cultured melanocytes, combination of antagonist Naltrindole and agonist SNC-80
  DOR protein expression: can upregulate the protein as well; also recorded: can up-regulate the protein as well
DOR protein expression; [9]
  DOR protein expression: important up-regulation; also recorded: up-regulates
[4]
  wound closure/migration, gap closure after 24 h: significant faster migration and wound closure; also recorded: significant improvement of wound closure/migration
[5]; MAP kinase activation assay for selecting DOR antagonists
  concentration that promotes phosphorylation of MAP kinase such as Erk: less than or equal to 10 μM
[5]; primary human keratinocytes
  Erk phosphorylation (MAPK pathway ERK1/2): strong stimulating effect; also recorded: massive activation of Erk

## Ryanodine
TAS2R14 [3]
  effect of blocker on calcium response to thujone: significantly attenuate

## O=C1CC[C@@]2(O)[C@H]3Cc4ccc(O)c5c4[C@@]2(CCN3CC2CC2)[C@H]1O5 [Naltrexone]
[1]
  wound healing (mean healing rate, macroscopic and microscopic): not effective

## O=C1CN(/N=C/c2ccc(-c3ccc([N+](=O)[O-])cc3)o2)C(O)=N1 [Dantrolene]
TAS2R14 [3]
  effect of blocker on calcium response to thujone: significantly attenuate

## Cc1ccc(C(=O)Nc2ccc(S(=O)(=O)O)c3cc(S(=O)(=O)O)cc(S(=O)(=O)O)c23)cc1NC(=O)c1cccc(NC(=O)Nc2cccc(C(=O)Nc3cc(C(=O)Nc4ccc(S(=O)(=O)O)c5cc(S(=O)(=O)O)cc(S(=O)(=O)O)c45)ccc3C)c2)c1 [suramin]
TAS2R14 [3]
  effect of blocker on calcium responses to thujone and FFA: significantly attenuated
TAS2R14 [3]; listed as Suramin
  effect of blocker on calcium responses to thujone and FFA: attenuates significantly

## COC(=O)/C=C/C(=O)N[C@@H]1CC[C@@]2(O)[C@H]3Cc4ccc(O)c5c4[C@@]2(CCN3CC2CC2)[C@H]1O5 [irreversible blocker of MOR (>KOR>>DOR), beta-Funaltrexamine]
[4]
  scratch wound closure after 24 h, remaining gap: no significant effects

## C1CCC[C@H]2CCCN3CC[C@@H](CCCCCC[C@@H]4CCCN5CC[C@@H](CC1)O[C@@H]45)O[C@@H]23 [Xestospongin, Xestospongin C]
TAS2R14 [3]
  effect of blocker on calcium response to thujone: significantly attenuated; also recorded: highly significant inhibition

## CC(C)[C@]12CC(=O)[C@H](C)[C@H]1C2 [thujone, α-thujone]
TAS2R14 [2]
  intracellular free calcium (fluorescence of fluo4): robust increases in intracellular free calcium
TAS2R14 [2]; control without suramin, 1 mM thujone, FFA in N/TERT cells, n=4
  calcium response: 84.2±5.5 percentage of ionomycin signal
TAS2R14 [3]
  calcium response: 34.4±8.2 percentage of ionomycin signal

## COc1cccc2c1[C@]13CCN(CC4CC4)[C@H](C2)[C@]1(OC)CCC(=O)C3 [Cyprodime]
[4]
  scratch wound closure after 24 h, remaining gap: no significant effects
